Experimental data taken from the supplement of paper PMC10307832.

Assays:
Assay in all cases: relative viability (nuclei count vs DMSO), 5 days (fraction); higher = more cells survive
[1] = test system: NCI-H1666
Procedure, shortened: (§1)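 Lung cancer cell lines were pin-tool dosed in 1536-well plates on the day after seeding, with either a lone drug or a fixed anchor-drug dose plus five library-drug doses (not always all listed) in √10 steps. Nuclei were counted on 4× images after 5 days. Relative viability is the ratio of treated-well to vehicle-well nuclei counts, with each value a median of duplicate plates.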

[2] = test system: NCI-H1944
Procedure, shortened: as §1

[3] = test system: NCI-H1975
Procedure, shortened: as §1

[4] = test system: NCI-H2087
Procedure, shortened: as §1

[5] = test system: NCI-H358
Procedure, shortened: as §1

[6] = test system: NCI-H596
Procedure, shortened: as §1

[7] = test system: NCI-H650
Procedure, shortened: as §1

[8] = test system: NCI-H661
Procedure, shortened: as §1

[9] = test system: NCI-H838
Procedure, shortened: as §1

[10] = test system: PC-3 [JPC-3]
Procedure, shortened: as §1

[11] = test system: SK-MES-1
Procedure, shortened: as §1

CC(=O)O[C@@]12CO[C@@H]1C[C@H](O)[C@@]1(C)C(=O)[C@H](O)C3=C(C)[C@@H](OC(=O)[C@H](O)[C@@H](NC(=O)OC(C)(C)C)c4ccccc4)C[C@@](O)([C@@H](OC(=O)c4ccccc4)[C@H]21)C3(C)C [Docetaxel] + C[C@@H](Oc1cc(-c2cnn(C3CCNCC3)c2)cnc1N)c1c(Cl)ccc(F)c1Cl [Crizotinib] (partner 1 µM) gave a relative viability ([1]; first compound 0.002 µM) of 0.337, a relative viability ([1]; first compound 0.006325 µM) of 0.259 and a relative viability ([1]; first compound 0.02 µM) of 0.24. For the same compound, the relative viability ([2]; first compound 0.0002 µM) was 1.13, the relative viability ([2]; first compound 0.000632 µM) was 1.01 and the relative viability ([2]; first compound 0.002 µM) was 0.956. It also gave a relative viability ([2]; first compound 0.006325 µM) of 0.192, a relative viability ([2]; first compound 0.02 µM) of 0.137 and a relative viability ([3]; first compound 0.0002 µM) of 0.861. The relative viability ([3]; first compound 0.000632 µM) was 0.483, the relative viability ([3]; first compound 0.002 µM) was 0.23 and the relative viability ([3]; first compound 0.006325 µM) was 0.192. It also gave a relative viability ([3]; first compound 0.02 µM) of 0.142, a relative viability ([4]; first compound 0.0002 µM) of 0.854 and a relative viability ([4]; first compound 0.000632 µM) of 0.684. It also gave a relative viability ([4]; first compound 0.002 µM) of 0.334, a relative viability ([4]; first compound 0.006325 µM) of 0.182 and a relative viability ([4]; first compound 0.02 µM) of 0.156. For the same compound, the relative viability ([5]; first compound 0.0002 µM) was 0.383, the relative viability ([5]; first compound 0.000632 µM) was 0.342 and the relative viability ([5]; first compound 0.002 µM) was 0.16. The relative viability ([5]; first compound 0.02 µM) was 0.116, the relative viability ([6]; first compound 0.0002 µM) was 0.986 and the relative viability ([6]; first compound 0.000632 µM) was 0.798. The relative viability ([6]; first compound 0.002 µM) was 1.01, the relative viability ([6]; first compound 0.006325 µM) was 0.475 and the relative viability ([6]; first compound 0.02 µM) was 0.462. For the same compound, the relative viability ([7]; first compound 0.0002 µM) was 0.504, the relative viability ([7]; first compound 0.000632 µM) was 0.356 and the relative viability ([7]; first compound 0.002 µM) was 0.253. For the same compound, the relative viability ([7]; first compound 0.006325 µM) was 0.208, the relative viability ([7]; first compound 0.02 µM) was 0.204 and the relative viability ([8]; first compound 0.000632 µM) was 1.06. It also gave a relative viability ([8]; first compound 0.002 µM) of 0.914, a relative viability ([8]; first compound 0.006325 µM) of 0.68 and a relative viability ([8]; first compound 0.02 µM) of 0.503. For the same compound, the relative viability ([9]; first compound 0.0002 µM) was 0.856, the relative viability ([9]; first compound 0.000632 µM) was 0.7 and the relative viability ([9]; first compound 0.002 µM) was 0.155. It also gave a relative viability ([9]; first compound 0.006325 µM) of 0.201, a relative viability ([9]; first compound 0.02 µM) of 0.124 and a relative viability ([10]; first compound 0.0002 µM) of 0.966. The relative viability ([10]; first compound 0.000632 µM) was 0.918, the relative viability ([10]; first compound 0.002 µM) was 0.635 and the relative viability ([10]; first compound 0.006325 µM) was 0.223. It also gave a relative viability ([10]; first compound 0.02 µM) of 0.172, a relative viability ([11]; first compound 0.0002 µM) of 0.937 and a relative viability ([11]; first compound 0.000632 µM) of 0.845. For the same compound, the relative viability ([11]; first compound 0.002 µM) was 0.287, the relative viability ([11]; first compound 0.006325 µM) was 0.221 and the relative viability ([11]; first compound 0.02 µM) was 0.177.
